Results: patent publication EP0838471A1, “PEPTIDE DERIVATIVES AND ANGIOTENSIN IV RECEPTOR AGONIST” (SAGAMI CHEMICAL RESEARCH CENTER, priority 1995, dated 1997)
Where a name gives a salt, the structure may show the parent alone.

biological target: T1, angiotensin IV receptor (Cavia porcellus, UniProt H0VNM7); assay: Binding to angiotensin IV receptor (125I-angiotensin IV displacement, crude membrane specimen); conditions: Hartley guinea pig hippocampus membrane; 0.2 nM 125I-angiotensin IV; 37°C for 90 minutes; nonspecific bond with 1 µM angiotensin IV
T1 sequence (H0VNM7 1-1025): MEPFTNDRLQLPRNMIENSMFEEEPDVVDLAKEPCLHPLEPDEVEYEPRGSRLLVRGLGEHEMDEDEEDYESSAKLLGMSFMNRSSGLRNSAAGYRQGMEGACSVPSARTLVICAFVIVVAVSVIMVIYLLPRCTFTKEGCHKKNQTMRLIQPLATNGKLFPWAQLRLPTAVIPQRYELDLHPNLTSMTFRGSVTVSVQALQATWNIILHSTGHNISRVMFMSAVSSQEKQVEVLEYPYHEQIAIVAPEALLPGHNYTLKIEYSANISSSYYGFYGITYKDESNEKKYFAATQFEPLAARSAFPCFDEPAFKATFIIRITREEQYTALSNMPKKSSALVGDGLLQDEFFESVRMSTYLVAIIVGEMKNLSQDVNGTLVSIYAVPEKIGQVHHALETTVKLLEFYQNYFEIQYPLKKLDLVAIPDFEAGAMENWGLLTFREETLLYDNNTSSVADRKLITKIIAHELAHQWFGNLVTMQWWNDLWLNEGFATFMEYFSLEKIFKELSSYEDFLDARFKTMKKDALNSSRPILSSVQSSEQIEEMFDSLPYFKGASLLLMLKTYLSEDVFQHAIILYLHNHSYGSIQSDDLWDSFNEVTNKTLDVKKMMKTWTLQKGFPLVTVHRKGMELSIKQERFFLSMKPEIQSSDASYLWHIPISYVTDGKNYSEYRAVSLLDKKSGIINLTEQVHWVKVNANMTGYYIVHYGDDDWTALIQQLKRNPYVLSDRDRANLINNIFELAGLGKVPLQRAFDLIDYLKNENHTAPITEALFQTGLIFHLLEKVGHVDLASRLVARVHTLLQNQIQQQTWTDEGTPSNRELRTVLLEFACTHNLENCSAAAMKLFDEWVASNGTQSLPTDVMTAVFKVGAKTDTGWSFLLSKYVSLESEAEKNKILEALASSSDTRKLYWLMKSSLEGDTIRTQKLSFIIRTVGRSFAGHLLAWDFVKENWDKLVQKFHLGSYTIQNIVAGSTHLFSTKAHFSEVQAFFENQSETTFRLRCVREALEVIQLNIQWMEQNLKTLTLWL
Protocol: The capability of binding to angiotensin IV receptor was measured by using Hartley guinea pig hippocampus in accordance with the method reported by Miller-Wing et al., J. Pharmacol. Exp. Therp., 266:1718 (1993).
The Hartley guinea pig hippocampus was homogenized in a 50 mM Tris hydrochloride buffer solution (pH 7.4) containing 1 mM of ethylenediamine-N,N,N',N'-tetraacetic acid (EDTA) and 100 µm of phenylmethanesufonyl fluoride (PMSF). After centrifuging at 900 × g, the supernatant thus obtained was further centrifuged at 48,000 × g. The precipitate was washed once with the same buffer solution and then the precipitate was suspended in a 50 mM Tris hydrochloride buffer solution (pH 7.4) containing 150 mM of sodium chloride, 1 mM of EDTA, 100 µm of PMSF and 0.1% of bovine serum albumin (BSA) in such a manner as to give a protein concentration of 50 µg/ml to thereby give a crude membrane specimen.
This membrane specimen was allowed to react with 0.2 nM ^125I-angiotensin IV and a test compound dissolved in dimethyl sulfoxide at 37°C for 90 minutes. Then ^125I-angiotensin IV binding to the membrane was filtered under suction onto GF/B filer paper with the use of a cell harvester for laboratory use. The radioactivity on the filter paper was measured with a gamma-counter. The nonspecific bond was measured in the presence of 1 µM of angiotensin IV and the specific bond was calculated by subtracting the nonspecific bond from the total bond. The capability (IC50) of the test compound of binding to angiotensin IV receptor was determined as the concentration of the test compound capable of inhibiting the binding at an extent of 50% from the inhibition curve obtained by reacting 0.2 nM ^125I-angiotensin IV with the test compound at various concentrations.

| Molecule | IC50 [nM] |
| --- | --- |
| CC[C@H](C)[C@H](CCc1ccccc1)NC(=O)[C@H](Cc1ccc(O)cc1)NC(=O)[C@@H](N)C(C)C [Example 59, (3S,4S)-N'-(L-valyl)-N-(4-methyl-1-phenylhexan-3-yl)-L-tyrosinamide hydrochloride] | 26.5 |
| CCCC[C@H](N)C(=O)N[C@@H](Cc1ccc(O)cc1)C(=O)N[C@@H](CCc1ccc(C)cc1)[C@@H](C)CC [Example 61, (3S,4S)-N'-(L-norleucyl)-N-[4-methyl-1-(4-methylphenyl)-1-hexan-3-yl]-L-tyrosinamide hydrochloride] | 24.2 |
| L-valyl-L-tyrosyl-N-(4-pyridylmethyl)-L-isoleucinamide [Example 9] | 5.99 |

More lines, now with the values ahead:

| IC50 [nM] | Molecule |
| --- | --- |
| 12.6 | N'-[N-(L-norleucyl)-N^im-benzyl-L-histidyl]-N-(2-phenylethyl)-L-leucinamide dihydrochloride [Example 33] |
| 0.4 | N'-[N-[L-2-amino-3-(ethylthio)propionyl]-L-tyrosyl]-N-(2-phenylethyl)-L-leucinamide hydrochloride [Example 18] |
